*1 amine or outer side, *2 acyl side, *3 side chain or, on linkers, in order; H or OH if unused. Where a SMILES comes first, the peptide text is derived from it. Bridges are numbered along the chain shown (N, C = ends). [ ]: non-standard residue; d: D form. The star is where a group is joined. ξ: configuration not given here. X2 = CC(C)C(NC(=O)CCN1C(=O)C=CC1=O)C(=O)N[C@@H](C)C(=O)Nc1ccc(CN*)cc1; Trp(2-yl) = O=C([C@H](Cc1c([*:3])[nH]c2ccccc12)N[*:1])[*:2]; Ile(4R-OH,5-OH) = C[C@H]([C@H](N)C(=O)O)[C@@H](O)CO; X3 = CC([C@H](N[*:1])C(=O)[*:2])[C@@H](O)CO; X1 = O=C([C@@H]1CC(O)CN1[*:1])[*:2]; ξD = NC(CC(=O)O)C(=O)O; ξC = NC(CS)C(=O)O
Tests used:
[1] = Reactivity with cysteine in PBS buffer (RP-HPLC C18); type: physicochemical; conditions: 1 mg/mL, 10 mg/mL cysteine in PBS, pH 7.4 at 37° C., 24 h, 48 h and 6 d
Method: 1 mg/mL α-amanitin 10 mg/mL cysteine in PBS, pH 7.4 at 37° C. after 24 h, 48 h and 6 d RP-HPLC C18.
1 mg/mL β-amanitin 10 mg/mL cysteine in PBS, pH 7.4 at 37° C. after 24 h, 48 h and 6 d RP-HPLC C18.
1 mg/mL amanin 10 mg/mL cysteine in PBS, pH 7.4 at 37° C. after 24 h, 48 h and 6 d RP-HPLC C18.
1 mg/mL HDP 30.2105, 10 mg/mL cysteine in PBS, pH 7.4 at 37° C. after 24 h, 48 h and 6 d RP-HPLC C18; *impurity.
FIG. 7 summarizes the results from FIGS. 3 to 6; x axis: reaction time in hours; y axis: amount of remaining amatoxin variant in %.

[2] = molecular target: RNA-polymerase II (Homo sapiens, UniProt P24928); conditions: read-out: KD of complex with RNA-polymerase II; cited from earlier work
[3] = system: BCMA-positive NCI-H929 cells; test: Plasma stability: cell-based cytotoxicity assay after incubation in plasma or PBS; set-up: species or system human
Method: J22.9-ISY-D265C-30.2115 (A) and J22.9-ISY-D265C-30.1699 (B) were incubated in PBS for control, or human, cynomolgus or mouse plasma for 0, 4, and 10 days at 37° C. and analysed for remaining cellular toxicity potential using BCMA-positive NCI-H929 cells.
Plasma stability of both ADC variants was confirmed in a cell-based cytotoxicity assay on BCMA-positive NCI-H929 cells (see Table 2) after incubation for 0, 4 and 10 days in PBS, human, cynomolgus or mouse plasma.

[4] = system: MM.1S Luc, and KMS-11; test: Timeline cytotoxicity experiment 24 to 120 hours on the two cell lines; type: cell-based, human; conditions: measured after 24, 46, 72, 96, and 120 hours
Method: Cytotoxicity potentials of J22.9-ISY-D265C-30.2115 was compared to the interchain conjugate J22.9-ISY-MMAF on two BCMA-positive MM cell lines (MM.1S Luc, and KMS-11). […] The efficacy of both compounds was compared in a timeline experiment on the two cell lines. Cytotoxicity was measured after 24, 46, 72, 96, and 120 hours (see FIGS. 26B+26C).

[5] = type: in vitro ADME; conditions: 37° C. for 0, 4, and 10 days in PBS, human, cynomolgus or mouse plasma
Method: Stability of J22.9-ISY-D265C-30.2115 and J22.9-ISY-D265C-30.1699 was tested following incubation at 37° C. for 0, 4, and 10 days in PBS, human, cynomolgus or mouse plasma.

[6] = system: NCI-H929 subcutaneous xenograft; test: NCI-H929 subcutaneous xenograft, single dose; type: in vivo, mouse
Method: Once tumor volume reached 80 mm^3, mice (8 animals per group) were treated intravenously with single doses (2 or 4 mg/kg) of J22.9-ISY-D265C-30.2115 or J22.9-ISY-D265C-30.1699, or were treated with PBS as control.. Tumor volumes were monitored twice per week.
Antitumor activity of J22.9-ISY-D265C-30.2115 and J22.9-ISY-D265C-30.1699 was tested in a subcutaneous NCI-H929 (see Table 3 for details of cell line) mouse xenograft model.

[7] = system: NCI-H929 subcutaneous xenograft; test: NCI-H929 subcutaneous xenograft, repeated dose; type: in vivo, mouse
Method: Once tumor volume reached 80 mm^3, mice (9 animals per group) were treated intravenously either once per week (1×/week), every two weeks (1×/2 weeks) or every 3 weeks (1×/3 weeks) with J22.9-ISY-D265C-30.2115 (doses 0.25 mg/kg, 0.5 mg/kg or 1 mg/kg) or were treated with PBS as control. In addition, 2 mg/kg doses were applied twice per week (2×/week). Tumor volumes were monitored twice per week.
The efficacy of drug substance J22.9-ISY-D265C-30.2115 was further evaluated in a repeated dose setting in the subcutaneous NCI-H929 xenograft model. Compared to the single dose application described above, doses were reduced to 1, 0.5 and 0.25 mg/kg and applied either once per week (1×/week), every two weeks (1×/2 weeks) or every three weeks (1×/3 weeks).

[8] = system: MM.1S Luc xenograft; test: Disseminating intravenous MM.1S Luc xenograft model, single dose; type: in vivo, mouse
Method: (§1) When reaching a mean flux of 1.5×10^6-1×10^7 (10-14 days after implantation) 8-10 mice per group were treated with single doses (2 and 4 mg/kg) of J22.9-ISY-D265C-30.1699, J22.9-ISY-D265C-30.2115 or PBS as control. Luciferase activity was monitored by non-invasive bio-imaging twice weekly, 10 minutes after administration of luciferin (10 μl/g body weight). (B) Individual tumor growth curves for each animal are depicted. Individual Growth curves are shown for groups treated with 2 mg/kg (solid line) and 4 mg/kg (dashed line) of J22.9-ISY-D265C-30.2115.
as §1, with “doses (0.1, 0.3, 1” for “doses (2”, “and 2” for “and 4”, “of” for “of J22.9-ISY-D265C-30.1699,”, “depicted.” for “depicted. Individual”, “with 1” for “with 2”
The antitumor activity of J22.9-ISY-D265C-30.1699 and J22.9-ISY-D265C-30.2115 was further tested in a disseminating intravenous MM.1S Luc xenograft model at doses of 2 and 4 mg/kg. […]

[9] = Dose-escalating tolerability study in non-human primates; type: in vivo, cynomolgus monkeys; conditions: repeated dosing of 3 mg/kg
Method: ALT: alanine transaminase; AST: aspartate transaminase; LDH: lactate dehydrogenase.
J22.9-ISY-D265C-30.2115 and J22.9-ISY-D265C-30.1699 were assessed for a dose-escalating tolerability study in cynomolgus monkeys. Groups of 3 animals were injected with J22.9-ISY-D265C-30.1699 at days 1 (0.3 mg/kg), 22 (1 mg/kg), and 44 (3 mg/kg), or with J22.9-ISY-D265C-30.2115 at days 1 (0.3 mg/kg), 21 (1 mg/kg), and 42, 64, 84, 106 (3 mg/kg each time point). Animals were monitored over time for biochemical and haematological blood parameters (see FIG. 25), urinalysis, body weight, food consumption, clinical signs and mortality. In addition, blood samples were collected for pharmacokinetic studies. At the end of the experiments tissue samples are used for histopathological examinations.

[10] = system: MM.1S Luc xenograft; test: Disseminating MM.1S Luc xenograft model, comparison with J22.9-ISY-MMAF; type: in vivo
Method: The antitumor activity of J22.9-ISY-D265C-30.2115 was compared to the interchain conjugate J22.9-ISY-MMAF in a disseminating intravenous MM.1S Luc xenograft model at doses of 1 and 4 mg/kg.

[11] = Western-Blot stability of reference Thiomab D265C conjugates in plasma and PBS; type: in vitro ADME; conditions: conjugated to reference Thiomab D265C; 37° C. in human plasma, mouse plasma and PBS for 0, 4 and 10 days
Source text: Detection was done with a polyclonal anti-amanitin antibody from rabbit and an anti-rabbit antibody conjugated to horseradish peroxidase.

[12] = system: SKBR-3 cells; test: Cytotoxicity on SKBR-3 after plasma or PBS stressing of reference Thiomab conjugates; type: cell-based; conditions: 4 days, SKBR-3 cells 96 h
Method: Test items were incubated in human plasma at 37° C. for 0 an 4 days. Cytotoxicity assay were performed on SKBR-3 cells for 96 h.
Test items were incubated in mouse plasma at 37° C. for 0 an 4 days. Cytotoxicity assay were performed on SKBR-3 cells for 96 h.
Test items were incubated in PBS at 37° C. for 0 an 4 days. Cytotoxicity assay were performed on SKBR-3 cells for 96 h. All ADCs show adequate stability to non-enzymatic environment.

amanin
reactivity with cysteine [1]: reduced reactivity

amanitin
Kd [2]: 3 nM

α-amanitin
reactivity with cysteine [1]: strong reactivity

β-amanitin
reactivity with cysteine [1]: strong reactivity

J22.9-ISY-D265C-30.2115: Thiomab antibody J22.9-ISY-D265C conjugated to amatoxin-linker HDP 30.2115 via engineered cysteine 265, cleavable linker
EC50 ([3]; PBS pH 7.4, day 0, 37° C.): 0.24 nM
EC50 ([3]; PBS pH 7.4, day 4, 37° C.): 0.24 nM
EC50 ([3]; PBS pH 7.4, day 10, 37° C.): 0.41 nM
EC50 ([3]; cynomolgus plasma, day 0, 37° C.): 0.25 nM
EC50 ([3]; cynomolgus plasma, day 4, 37° C.): 0.25 nM
EC50 ([3]; human plasma, day 0, 37° C.): 0.28 nM
EC50 ([3]; human plasma, day 4, 37° C.): 0.27 nM
EC50 ([3]; human plasma, day 10, 37° C.): 1 nM
influence of incubation on cytotoxic potential ([3]; incubation in PBS or plasma up to 10 days): almost no influence on the cytotoxic potential
EC50 ([3]; mouse plasma, day 0, 37° C.): 0.12 nM
EC50 ([3]; mouse plasma, day 4, 37° C.): 0.18 nM
EC50 ([3]; mouse plasma, day 10, 37° C.): 0.6 nM
time at which full cytotoxicity is unfolded [4]: after 96 and 120 hours
stability (Western Blot) [5]: particularly high stability
anti-tumor efficacy compared to J22.9-ISY-D265C-30.1699 ([6]; 2 mg/kg): slightly superior anti-tumor efficacy
statistically significant body weight reduction ([6]; single doses 2 or 4 mg/kg): No statistically significant body weight reduction was observed
initial response followed by regrowth of tumor ([6]; single treatment 2 mg/kg iv): 6 of 8
complete tumor remission ([6]; single treatment 4 mg/kg iv): 7 of 8
tumor response ([7]; repeated 2 mg/kg dosing): complete tumor remission
tumor response ([7]; repeatedly applied doses of 1 mg/kg): tumor regression
tumor response ([8]; single dose application of 0.3 mg/kg): complete tumor eradication
slight regrowth of tumor after initial response for over 90 days ([8]; single doses of 2 and 4 mg/kg): 1 of 10
liver enzymes or LDH on repeated dosing [9]: did not result in further increase
time to regrowth of the tumor ([10]; 1 mg/kg): 50 days
time to regrowth of the tumor ([10]; 4 mg/kg): 100 days
time to initial response ([10]; 1 and 4 mg/kg (both doses)): 10 days
efficacy compared with MMAF conjugate ([10]; in vivo): better efficacy in terms of tumor free survival

CC[C@H](C)[C@@H]1NC(=O)CNC(=O)[C@@H]2Cc3c([nH]c4ccccc34)SCC(NC(=O)CNC1=O)C(=O)N[C@@H](CC(=O)NCc1ccc(NC(=O)[C@H](C)NC(=O)C(NC(=O)CCN3C(=O)C=CC3=O)C(C)C)cc1)C(=O)N1CC(O)C[C@H]1C(=O)N[C@@H]([C@@H](C)[C@@H](O)CO)C(=O)N2 (stereo partly drawn) [HDP 30.2115] (cyclo(D(X2)[X1][Ile(4R-OH,5-OH)][Trp(2-yl)]GIG[ξC]); thioether 4-8)
stability / cross-links (Western-Blot) [11]: high stability and significantly reduced cross-links
cytotoxicity after plasma stressing ([12]; human plasma at 37° C.): still picomolar activity
cytotoxicity after plasma stressing ([12]; mouse plasma at 37° C.): remains almost unchanged

CC[C@H](C)[C@@H]1NC(=O)CNC(=O)[C@@H]2Cc3c([nH]c4ccccc34)SCC(NC(=O)CNC1=O)C(=O)NC(CC(=O)O)C(=O)N1CC(O)C[C@H]1C(=O)N[C@@H](C(C)[C@@H](O)CO)C(=O)N2 (some centres unmarked) [HDP 30.2105] (cyclo(GIG[ξC][ξD][X1][X3][Trp(2-yl)]); thioether 4-8)
reactivity with cysteine [1]: complete absence of reactivity

CC[C@H](C)[C@@H]1NC(=O)CNC(=O)[C@H]2Cc3c([nH]c4cc(OCc5ccc(NC(=O)[C@H](C)NC(=O)[C@@H](NC(=O)CCN6C(=O)C=CC6=O)C(C)C)cc5)ccc34)[S@+]([O-])CC(NC(=O)CNC1=O)C(=O)N[C@@H](CC(N)=O)C(=O)N1CC(O)C[C@H]1C(=O)N[C@@H]([C@@H](C)[C@@H](O)CO)C(=O)N2 (some centres unmarked) [HDP 30.1699]
stability / cross-links (Western-Blot) [11]: considerable cross-links and loss of the amatoxin moiety
cytotoxicity after plasma stressing ([12]; human plasma at 37° C.): remarkable loss of cytotoxicity
cytotoxicity after plasma stressing ([12]; mouse plasma at 37° C.): remarkable loss of cytotoxicity
